# Measurements: ChEMBL document CHEMBL1129193, “Isosteres of nucleoside triphosphates” (Bioorg Med Chem Lett, 1996)
# Key:
# CEM-TK(-) = assay: Compound was evaluated for anti-HIV activity against HIV-2 infected CEM/TK- cell lines.; settings: Homo sapiens
# C8166 [1] = assay: Compound was evaluated for anti-HIV activity against HIV-1 infected C8166 cell lines; format: functional, cell-based; settings: Homo sapiens
# CCRF-CEM [2] = assay: Concentration of compound required to reduce viability of CEM/0 cells by 50%.; format: functional; settings: Homo sapiens
# [3] = target: Human immunodeficiency virus type 1 reverse transcriptase (Human immunodeficiency virus 1, UniProt Q72547); assay: Inhibition of HIV-1 reverse transcriptase.
# CCRF-CEM [4] = assay: Compound was evaluated for anti-HIV activity against HIV-2 infected CEM/0 cell lines.; format: functional, cell-based; settings: Homo sapiens
# C8166 [5] = assay: Concentration of compound required to reduce viability of C8166 cells by 50%.; format: functional; settings: Homo sapiens
# CCRF-CEM [6] = assay: Compound was evaluated for anti-HIV activity against HIV-1 infected CEM/0 cell lines.; format: functional, cell-based; settings: Homo sapiens
# Homo sapiens = species: Homo sapiens; assay: Compound was evaluated for anti-HIV activity against HIV-2 infected CEM/TK- cell lines.; format: functional, organism-based
EC50 (CEM-TK(-)),EC50 (C8166 [1]),IC50 [3],EC50 (CCRF-CEM [4]),EC50 (CCRF-CEM [6]),EC50 (Homo sapiens),SMILES,CC50 (CCRF-CEM [2]),CC50 (C8166 [5])
87 µM,1.6 µM,> 100 µM,550 nM,1600 nM,–,Cc1cn(C2C=CC(COC(=O)CC(O)(CC(=O)OCc3ccccc3)C(=O)OCc3ccccc3)O2)c(=O)[nH]c1=O (centres undefined),64 µM,500 µM
–,3.2 µM,> 100 µM,4000 nM,4000 nM,> 250 µM,Cc1cn(C2C=CC(COC(=O)CC(O)(CC(=O)O)C(=O)O)O2)c(=O)[nH]c1=O (centres undefined),209 µM,500 µM
–,> 2500 µM,> 100 µM,–,–,–,Cc1cn(C2C=CC(CNC(=O)CC(O)(CC(=O)O)C(=O)O)O2)c(=O)[nH]c1=O (centres undefined),–,> 2500 µM
–,400 µM,> 100 µM,> 250000 nM,> 250000 nM,–,C=CCOC(=O)CC(O)(CC(=O)NCC1C=CC(n2cc(C)c(=O)[nH]c2=O)O1)C(=O)OCC=C (centres undefined),> 250 µM,> 1000 µM
–,1000 µM,> 100 µM,> 250000 nM,> 250000 nM,–,COC(=O)CC(O)(CC(=O)NCC1C=CC(n2cc(C)c(=O)[nH]c2=O)O1)C(=O)OC (centres undefined),> 250 µM,> 1000 µM
110 µM,0.8 µM,> 100 µM,2500 nM,950 nM,–,COC(=O)CC1(CC(=O)OCC2C=CC(n3cc(C)c(=O)[nH]c3=O)O2)OCOC1=O (centres undefined),100 µM,400 µM
72 µM,1 µM,> 100 µM,550 nM,700 nM,–,C=CCOC(=O)CC(O)(CC(=O)OCC1C=CC(n2cc(C)c(=O)[nH]c2=O)O1)C(=O)OCC=C (centres undefined),69 µM,500 µM
> 250 µM,4 µM,> 100 µM,4500 nM,3470 nM,–,Cc1cn(C2C=CC(COC(=O)CC3(CC(=O)O)OCOC3=O)O2)c(=O)[nH]c1=O (centres undefined),> 250 µM,1000 µM
78 µM,0.8 µM,> 100 µM,1600 nM,2000 nM,–,C=CCOC(=O)CC1(CC(=O)OCC2C=CC(n3cc(C)c(=O)[nH]c3=O)O2)OCOC1=O (centres undefined),179 µM,500 µM
> 250 µM,8 µM,–,3000 nM,1350 nM,–,Cc1cn(C2C=CC(COC(=O)CC3(CC(=O)OCc4ccccc4)OCOC3=O)O2)c(=O)[nH]c1=O (centres undefined),92.8 µM,400 µM

SMILES,EC50 (CEM-TK(-)),EC50 (C8166 [1]),IC50 [3],EC50 (CCRF-CEM [4]),EC50 (CCRF-CEM [6]),EC50 (Homo sapiens),CC50 (CCRF-CEM [2]),CC50 (C8166 [5])
Cc1cn([C@H]2C[C@H](N=[N+]=[N-])[C@@H](CO)O2)c(=O)[nH]c1=O [ZIDOVUDINE],> 250 µM,0.016 µM,> 100 µM,6 nM,–,–,> 250 µM,> 1000 µM
